According to the CheMixHub viscosity set:
Values joined by “and” are separate entries in the source; they are usually repeats but may differ in a detail not shown here. Identical values can stand only once.

Assays:
[1] = xn = mol fraction of the nth substance listed

CCCC[n+]1ccccc1.F[B-](F)(F)F
101.3 kPa
Details	viscosity
293.15 K	223 mPa·s and 223.1 mPa·s
298.15 K	163 mPa·s and 163.3 mPa·s
303.15 K	121 mPa·s and 123 mPa·s
308.15 K	92.8 mPa·s and 94.21 mPa·s
313.15 K	72.3 mPa·s and 70.29 mPa·s
318.15 K	57.4 mPa·s and 55.81 mPa·s
323.15 K	46.3 mPa·s and 45.12 mPa·s

CCCC(=O)[O-].CC[NH+](CC)CCO
101 kPa
Details	viscosity [mPa·s]
293.15 K	71.57
298.15 K	53.96
303.15 K	41.42
308.15 K	32.34
313.15 K	25.64
318.15 K	20.63
323.15 K	16.82

CC(C)CC(C)(C)C
viscosity
Details	293.15 K	298.15 K	303.15 K	308.15 K	313.15 K	318.15 K	323.15 K
100 kPa	–	0.492 mPa·s	–	0.45 mPa·s	0.431 mPa·s	–	–
101 kPa	0.498 mPa·s	–	0.451 mPa·s and 0.445 mPa·s	0.428 mPa·s and 0.427 mPa·s	–	0.378 mPa·s	0.364 mPa·s and 0.3593 mPa·s
101.33 kPa	–	0.462 mPa·s and 0.492 mPa·s and 0.4842 mPa·s	–	0.412 mPa·s and 0.441 mPa·s	0.391 mPa·s and 0.4056 mPa·s	0.381 mPa·s and 0.3848 mPa·s	–

CCS
Details	viscosity [mPa·s]
298.15 K, 101 kPa	0.2091

CC=Cc1ccc2c(c1)OCO2
Details	viscosity [mPa·s]
298.15 K, 101 kPa	3.981

CCCCCC(=O)O
Details	viscosity [mPa·s]
298.15 K, 101 kPa	2.814
323.15 K, 101.33 kPa	1.762

OCCOc1ccccc1
101 kPa
Details	viscosity [mPa·s]
303.15 K	12.86
313.15 K	9.235
323.15 K	5.927

CCCCCCO
viscosity
Details	100 kPa	101 kPa	101.3 kPa	101.33 kPa
293.15 K	5.36 mPa·s and 5.363 mPa·s and 5.273 mPa·s	4.963 mPa·s	5.361 mPa·s	4.993 mPa·s
298 K	4.502 mPa·s	–	–	–
298.15 K	4.45 mPa·s	–	4.342 mPa·s and 4.403 mPa·s	–
303 K	–	–	–	3.82 mPa·s
303.15 K	3.883 mPa·s	–	3.69 mPa·s	–
308 K	–	–	–	3.3 mPa·s
308.15 K	–	–	3.139 mPa·s and 3.604 mPa·s	–
313 K	–	2.903 mPa·s	–	2.87 mPa·s and 2.82 mPa·s
313.15 K	2.9 mPa·s and 2.896 mPa·s	2.86 mPa·s and 3.451 mPa·s and 2.934 mPa·s	–	–
318.15 K	2.571 mPa·s and 2.656 mPa·s	2.397 mPa·s and 2.656 mPa·s	2.655 mPa·s	2.601 mPa·s
323 K	–	–	–	2.183 mPa·s
323.15 K	2.2 mPa·s	2.072 mPa·s	–	2.267 mPa·s

CC(C)CC(=O)CC(C)C
100 kPa
Details	viscosity [mPa·s]
293.15 K	0.95
298.15 K	0.905
303.15 K	0.86
308.15 K	0.81
313.15 K	0.76
318.15 K	0.72
323.15 K	0.67

CCCCCCCCCCCCCC[P+](CCCCCC)(CCCCCC)CCCCCC.c1nnc[n-]1
100 kPa
Details	viscosity [mPa·s]
293.15 K	1320
298.15 K	918
303.15 K	654
308.15 K	477
313.15 K	354
318.15 K	269
323.15 K	209

CCC12CC3CC(CC(C3)C1)C2 + CCCCCCCCCCC
viscosity [mPa·s], [1], 100 kPa
Details	x1 = 0.1012	x1 = 0.2042	x1 = 0.3018	x1 = 0.4017	x1 = 0.5014	x1 = 0.6059	x1 = 0.7013	x1 = 0.8052	x1 = 0.8999
293.15 K	1.348	1.47	1.631	1.86	2.179	2.592	3.18	4.01	5.036
298.15 K	1.203	1.334	1.489	1.692	1.93	2.302	2.77	3.47	4.339
303.15 K	1.108	1.225	1.366	1.546	1.764	2.091	2.514	3.129	3.854
308.15 K	1.025	1.133	1.271	1.418	1.601	1.883	2.235	2.77	3.404
313.15 K	0.953	1.049	1.173	1.311	1.472	1.728	2.039	2.509	3.078
318.15 K	0.887	0.983	1.092	1.22	1.377	1.6	1.882	2.284	2.781
323.15 K	0.829	0.92	1.013	1.135	1.272	1.472	1.723	2.094	2.512

CCCCCCO + CCCCCCC
viscosity [mPa·s], [1], 101.33 kPa
Details	x1 = 0.0567	x1 = 0.1134	x1 = 0.2217	x1 = 0.3279	x1 = 0.4307	x1 = 0.5294	x1 = 0.6292	x1 = 0.7248	x1 = 0.8643	x1 = 0.9526
298.15 K	0.4405	0.4541	0.5473	0.6831	0.8745	1.142	1.523	2.047	2.93	3.788
308.15 K	0.396	0.4021	0.4788	0.5863	0.7378	0.9541	1.201	1.574	2.299	2.921

O=C1CCCCC1 + CCCCCC
viscosity [mPa·s], [1]
Details	298.15 K	303.15 K	308.15 K
101 kPa, x1 = 0.0863	0.364	–	–
101 kPa, x1 = 0.2109	0.421	–	–
101 kPa, x1 = 0.3038	0.474	–	–
101 kPa, x1 = 0.4007	0.542	–	–
101 kPa, x1 = 0.463	0.598	–	–
101 kPa, x1 = 0.6023	0.773	–	–
101 kPa, x1 = 0.6701	0.833	–	–
101 kPa, x1 = 0.7991	1.185	–	–
101 kPa, x1 = 0.872	1.398	–	–
101.33 kPa, x1 = 0.1011	0.335	0.318	0.305
101.33 kPa, x1 = 0.2012	0.381	0.361	0.343
101.33 kPa, x1 = 0.3052	0.445	0.418	0.396
101.33 kPa, x1 = 0.4029	0.514	0.483	0.458
101.33 kPa, x1 = 0.5011	0.607	0.57	0.537
101.33 kPa, x1 = 0.6043	0.732	0.684	0.641
101.33 kPa, x1 = 0.7032	0.898	0.834	0.779
101.33 kPa, x1 = 0.8003	1.131	1.033	0.961
101.33 kPa, x1 = 0.8989	1.441	1.322	1.22

O=C1CCCCC1 + OCCO
[1], 293.15 K, 101.33 kPa
Details	viscosity [mPa·s]
x2 = 0.1495	2.735
x2 = 0.2349	3.114
x2 = 0.293	3.566
x2 = 0.4345	4.882
x2 = 0.5042	5.922
x2 = 0.5172	6.179
x2 = 0.6565	9.855
x2 = 0.6965	11.02
x2 = 0.7152	11.2
x2 = 0.7398	12.4
x2 = 0.8522	17.59
x2 = 0.8845	18.73

O=P([O-])(O)O.[NH4+] + O
viscosity [mPa·s], [1], 101 kPa
Details	293.15 K	303.15 K	313.15 K	323.15 K
x1 = 0.017	1.312	1.049	0.855	0.71
x1 = 0.038	1.826	1.442	1.17	0.972
x1 = 0.063	–	2.196	1.749	1.438
x1 = 0.095	–	–	–	2.325
